According to patent US20260183274A1, “PDK1 REGULATORY COMPOUND AND COMPOSITION CONTAINING THE SAME” (PROVIBIO CO., LTD., priority 2024, published 2026):
Like-named read-outs stand apart in the source and are kept apart here.

Columns and labels:
[1] = system: Human B Lymphocyte cell line, SU-DHL-8; experiment: Relative cell viability CCK-8, SU-DHL-8; format: cell-based
Procedure, shortened: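 Cells grown in RPMI-1640 with 10% FBS, treated with compound at several concentrations, then given CCK-8 for 4 h at 37° C. Viability expressed as percent of DMSO-treated cells.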

[2] = system: MRL/lpr mice; experiment: Lupus animal model (MRL/lpr mice); format: in vivo, mouse; conditions: for Hair growth on the facial region: 41-week-old female MRL/lpr, GO15F 30 mg/kg, GO48 1 mg/kg, GO88 0.5 mg/kg i.p. once daily, FIG. 24
Excerpt: The MRL/MpJ-Faslpr/J (Hereinafter Referred to as “MRL/lpr”) used in this experiment is one of the representative animal models for systemic lupus erythematosus (SLE), known to produce various autoantibodies, including antinuclear antibodies, due to the lpr (lymphoproliferation) gene.
In this invention, the period up to 9 weeks of age was considered the pre-disease stage, and the period after 23 weeks of age was considered the post-disease stage, and efficacy verification experiments using this model were conducted.
MRL/lpr mice were imported from The Jackson Laboratory and acclimatized for one week in an SPF (Specific Pathogen Free) facility maintained at a temperature of 21-24° C., humidity of 40-60%, and a 12-hour light-dark cycle (lights on at 7:00 AM, lights off at 7:00 PM).
Subsequently, female and male MRL/lpr mice were mated at a ratio of 2:1 in the same facility, and the female offspring were administered the compound GO15F of the present invention or vehicle at a dose of 30 mg/kg […]
Urine samples were collected once a week from each individual and used for analytical experiments. […]
The protein concentration in urine collected weekly from the control group or experimental group was analyzed using ‘Quick Start™ Bradford 1× Dye Reagent (Bio-Rad, Cat. #5000205).’
In each well of a 96-well plate, 5 μl of urine sample diluted with triple-distilled water and 250 μl of 1× dye reagent were added, reacted, and the absorbance was measured at 595 nm. […]
Each kidney tissue was used to isolate total RNA using TRIzol™ (Invitrozen, Cat. #15596018). RNA from each mouse was quantified at 1 μg using a micro-quantitative spectrophotometer (ThermoFisher Scientific, ND2000) and cDNA was synthesized.
The synthesized cDNA from each mouse was quantified to a concentration of 50 ng using a micro-quantitative spectrophotometer, and qPCR was performed for the cytokines ‘IL-2, IL-6, IL-10, IL-17, TNF-α, IFN-γ’ using a SYBR green probe (CFX96, BIO-RAD).
To investigate the effects of drug administration on renal tissue in MRL/lpr mice, the tissue was fixed in 10% neutral buffered formalin at room temperature, followed by stepwise ethanol penetration for dehydration. The tissue was then embedded in xylene and paraffin.
The blocked tissues were sectioned into 4 μm thick slices using a microtome, followed by deparaffinization, hydration, and staining.
Hematoxylin & Eosin staining, PAS staining, and Masson trichrome staining were performed for pathological evaluation of the tissues.
To determine the extent of IgG deposition in kidney tissue of MRL/lpr mice, immunofluorescence staining was performed using anti-IgG antibodies on paraffin-embedded kidney tissue sections, and the staining results were examined using a fluorescence microscope.
Additionally, in 41-week-old female MRL/lpr mice, the compounds GO15F (30 mg/kg), GO48 (1 mg/kg), and GO88 (0.5 mg/kg) were administered intraperitoneally once daily.
To confirm the proliferative activity of hair follicle cells in the skin tissue of these mice, the mice were sacrificed 14 days after administration of the compounds of the present invention, and Ki-67 immunohistochemistry (IHC) was performed.
For this purpose, the excised skin tissue was fixed in formalin, embedded in paraffin blocks, and stained with a Ki-67-specific antibody on tissue sections prepared as slides.

[3] = system: Human Head and Neck cancer, Fadu; experiment: Relative cell viability CCK-8, Fadu; format: cell-based; conditions: Fadu cells, relative to untreated cells
Description: Human-derived head and neck cancer cell line Fadu and osteosarcoma cell line Saos-2 were cultured in MEM medium containing 10% FBS, 100 U/mL penicillin, and 100 μg/mL streptomycin.
Following stabilization, the cells were harvested using Trypsin-EDTA treatment, centrifuged at 1,200 rpm for 3 minutes, the supernatant was removed, and the cells were resuspended in the same medium. They were then seeded into a 96-well plate (Costar 96-well cell culture plate, Corning) at 100 μL per well, and the conditions were adjusted as indicated in Table 5.
The cells were cultured in a 5% CO2 incubator at 37° C. for 24 hours, and after stabilization of the cells, each plate was washed with 200 μL of PBS per well and treated with 50 μL of culture medium per well.
After that, 10 μL of CCK-8 was added to each well, and the plate was incubated again at 37° C. in a 5% CO2 incubator for 2 hours.
In other words, when the survival rate of untreated cells (DMSO) is set at 100%, the relative cell survival rate in each group treated with the drug at different concentrations is indicated.

[4] = Homo sapiens, SU-DHL-8, 48 h, read-out: Relative cell viability (%), SU-DHL-8, 1 μM, 48 hours, untreated (DMSO) = 100%
[5] = Homo sapiens, SU-DHL-8, 48 h, read-out: Relative cell viability (%), SU-DHL-8, 10 μM, 48 hours, untreated (DMSO) = 100%
[6] = 30 μM, 48 hours, untreated (DMSO) = 100%
[7] = 50 μM, 48 hours, untreated (DMSO) = 100%

Compound: Nc1ncccc1C(=O)NCCCCCCCCCCCCN1CCOCC1 [Compound 2, 2-Amino-N-(12-morpholin-4-yl-dodecyl)-nicotinamide]
- viability at 1 µM [1, 4]: 31%
- viability at 10 µM [1, 5]: 26%
- viability at 30 µM ([1]; Homo sapiens, SU-DHL-8, 48 h, read-out: Relative cell viability (%), SU-DHL-8, 30 μM, 48 hours, untreated (DMSO) = 100%): 25.3%
- viability at 50 µM ([1]; Homo sapiens, SU-DHL-8, 48 h, read-out: Relative cell viability (%), SU-DHL-8, 50 μM, 48 hours, untreated (DMSO) = 100%): 24.7%
- Hair growth on the facial region [2]: hair growth was confirmed

Compound: Nc1ncccc1C(=O)NCCCCCCCCCCCCN1CCNCC1 [Compound 5, 2-Amino-N-(12-(piperazin-1-yl)dodecyl)-nicotinamide]
- viability at 1 µM [1, 4]: 8.8%
- viability at 10 µM [1, 5]: 5.87%
- Relative cell viability (%), SU-DHL-8 ([1]; human, 48 h, 30 µM): 4.63%
- Relative cell viability (%), SU-DHL-8 ([1]; human, 48 h, 50 µM): 3.67%
- Relative cell viability (%) ([3]; 10 μM, listed as GO78, 10 µM): 6.63%
- Relative cell viability (%) ([3]; 30 μM, listed as GO78, 30 µM): 4.93%
- Relative cell viability (%) ([3]; 50 μM, listed as GO78, 50 µM): 0.99%
- viability at 1 µM ([3]; Homo sapiens, FaDu, 1 μM): 4.18%

Compound: CC1(C)CN(CCCCCCCCCCCCC(=O)Nc2nc(N)c3[nH]cnc3n2)CCO1 [Compound 11, 12-[4-(2,2-dimethylmorpholin-4-yl)]dodecyl-N-(6-aminopurine-2-yl) carboxamide]
- Relative cell viability (%), SU-DHL-8 ([1]; 1 μM, 48 hours, untreated (DMSO) = 100%): 7.63%
- Relative cell viability (%), SU-DHL-8 ([1]; 10 μM, 48 hours, untreated (DMSO) = 100%): 6.09%
- Relative cell viability (%), SU-DHL-8 [1, 6]: 4.82%
- Relative cell viability (%), SU-DHL-8 [1, 7]: 3.29%
- Relative cell viability (%) ([3]; 1 μM): 2.08%
- Relative cell viability (%) ([3]; 10 μM): 9.68%
- Relative cell viability (%) ([3]; 30 μM): 8.51%
- Relative cell viability (%) ([3]; 50 μM): 4.78%

Compound: Nc1ncccc1C(=O)NCCCCCCCCCCCCN1CCNCC1 [Compound 14, 2-Amino-N-(12-(piperazin-1-yl)dodecyl)nicotinamide]
- Relative cell viability (%), SU-DHL-8 ([1]; human, 48 h, 1 µM): 9.28%
- Relative cell viability (%), SU-DHL-8 ([1]; human, 48 h, 10 µM): 3.31%
- Relative cell viability (%), SU-DHL-8 ([1]; human, 48 h, 30 µM): 1.16%
- Relative cell viability (%), SU-DHL-8 ([1]; human, 48 h, 50 µM): 0.32%
- Relative cell viability (%) ([3]; 1 μM, listed as GO88, 1 µM): 7.05%
- Relative cell viability (%) ([3]; 10 μM, listed as GO88, 10 µM): 73.25%
- Relative cell viability (%) ([3]; 30 μM, listed as GO88, 30 µM): 57.64%
- Relative cell viability (%) ([3]; 50 μM, listed as GO88, 50 µM): 7.08%
- Hair growth on the facial region [2]: hair growth was confirmed

Compound: Nc1nc(NC(=O)CCCCCCCCCCCCN2CCN(CCO)CC2)nc2nc[nH]c12 [Compound 15, 12-[4-(2-hydroxyethyl)piperazin-1-yl]dodecyl-N-(6-aminopurine-2-yl) carboxamide]
- viability at 1 µM ([3]; Homo sapiens, FaDu, 1 μM): 4.15%
- viability at 10 µM ([3]; Homo sapiens, FaDu, 10 μM): 29.3%
- viability at 30 µM ([3]; Homo sapiens, FaDu, 30 μM): 41.5%
- viability at 50 µM ([3]; Homo sapiens, FaDu, 50 μM): 9.44%

Compound: Nc1ncccc1C(=O)NCCCCCCCCCCCCF [Compound 57, 2-Amino-N-(12-fluoro-dodecyl)-nicotinamide]
- Relative cell viability (%), SU-DHL-8 [1, 6]: 15.63%
- Relative cell viability (%), SU-DHL-8 [1, 7]: 11.94%
- viability at 1 µM ([1]; Homo sapiens, SU-DHL-8, 48 h, 1 μM, 48 hours, untreated (DMSO) = 100%, read-out: Relative cell viability (%), SU-DHL-8): 19%
- viability at 10 µM ([1]; Homo sapiens, SU-DHL-8, 48 h, 10 μM, 48 hours, untreated (DMSO) = 100%, read-out: Relative cell viability (%), SU-DHL-8): 18.8%
- Protein concentration in urine (proteinuria) ([2]; 30 mg/kg once daily, vs control MRL/lpr, FIG. 16): significantly lower than that in the control group
- Hair growth on the facial region [2]: hair growth was confirmed
- B cells, T cells and macrophages in spleen (flow cytometry) ([2]; FIG. 19): reduced the increased B cells, T cells, and macrophages
- IgG deposition in kidney tissue (immunofluorescence) ([2]; FIG. 22): significantly lower
- Renal pathological tissue staining (glomerular capillary loops) ([2]; H&E, PAS, Masson trichrome, FIG. 21): the glomerular capillary loops were well maintained
- Concentration of anti-dsDNA IgG in blood ([2]; serum at necropsy (23 weeks), vs control MRL/lpr, FIG. 17): significantly lower
- Total IgG concentration in blood ([2]; serum at necropsy, vs control MRL/lpr, FIG. 18): significantly lower
